Measured values as given in ChEMBL document CHEMBL4270488, “Antibacterial Compounds from Marine Bacteria, 2010-2015” (J Nat Prod, 2017).
In brackets after ≈: the same amount, converted by molar mass. Where a SMILES comes first, the peptide text is derived from it. [ ]: non-standard residue; d: D form. The star is where a group is joined. X2 = CCC(C)CC(C)CCCCC[C@@H](O)CC(=O)*; X1 = CCC(C)CC(C)CCCC[C@@H](O)CC(=O)*

Legend:
Staphylococcus aureus [1] = experiment: Antibacterial activity against methicillin-resistant Staphylococcus aureus; assay type: functional
Bacillus subtilis [2] = experiment: Antibacterial activity against Bacillus subtilis by broth dilution assay; assay type: functional
Escherichia coli [3] = experiment: Antibacterial activity against Escherichia coli by broth dilution assay; assay type: functional
Bacillus subtilis [4] = experiment: Antibacterial activity against Bacillus subtilis by serial dilution assay; assay type: functional
Micrococcus luteus = experiment: Antibacterial activity against Micrococcus luteus by serial dilution assay; assay type: functional
Escherichia coli [5] = experiment: Antibacterial activity against Escherichia coli by serial dilution assay; assay type: functional
Proteus vulgaris = experiment: Antibacterial activity against Proteus vulgaris by serial dilution assay; assay type: functional
Staphylococcus aureus [6] = experiment: Antibacterial activity against Staphylococcus aureus by broth dilution assay; assay type: functional
Pseudomonas aeruginosa = experiment: Antibacterial activity against Pseudomonas aeruginosa by broth dilution assay; assay type: functional
Salmonella typhi = experiment: Antibacterial activity against Salmonella typhi by broth dilution assay; assay type: functional, Salmonella enterica subsp. enterica serovar Typhi; conditions: Salmonella enterica
Staphylococcus aureus [7] = experiment: Antibacterial activity against Staphylococcus aureus ATCC 29213; assay type: functional
Bacillus subtilis [8] = experiment: Antibacterial activity against Bacillus subtilis SCSIO BS01; assay type: functional
Bacillus thuringiensis = experiment: Antibacterial activity against Bacillus thuringiensis SCSIO BT01; assay type: functional
Staphylococcus aureus [9] = experiment: Antibacterial activity against Staphylococcus aureus incubated for 18 hrs; assay type: functional

Q: How did the MIC (Staphylococcus aureus [1]) turn out when `CC(=O)O[C@H]1[C@@H](O)[C@H](Oc2ccc3c(O)c(NC(=O)c4cc(O)c(O)c(CC=C(C)C)c4)c(=O)oc3c2C)OC(C)(C)[C@@H]1O` was run?
A: > 64 µg/mL

Q: `CC(C)=CCc1cc(C(=O)Nc2c(O)c3ccc(O[C@@H]4OC(C)(C)[C@H](O)[C@@H](O)[C@H]4O)c(C)c3oc2=O)cc(O)c1O` was tested. Which MIC (Staphylococcus aureus [1]) did it give?
A: > 64 µg/mL

Q: How did the MIC (Bacillus subtilis [2]) turn out when `CO[C@@H]1/C=C/[C@H](O)C[C@@H](O)C/C=C\C=C\[C@@H](O)C/C=C/C=C\C(=O)O[C@H](C)CCC[C@@H]1O` was run?
A: ≥ 16 µg/mL

Q: And the MIC (Escherichia coli [3])?
A: ≥ 16 µg/mL

Q: With `O=C1NC(=O)C(c2ccc(O)cc2)=C1c1ccccc1` as the compound, how does the MIC (Bacillus subtilis [4]) read?
A: 25 to 100 µg/mL (≈ 94.2 to 377 µM)

Q: What about the MIC (Micrococcus luteus) of the same compound?
A: 25 to 100 µg/mL (≈ 94.2 to 377 µM)

Q: What about the MIC (Escherichia coli [5]) of the same compound?
A: 25 to 100 µg/mL (≈ 94.2 to 377 µM)

Q: And the MIC (Proteus vulgaris)?
A: 25 to 100 µg/mL (≈ 94.2 to 377 µM)

Q: Which results are given for `CCC(C)CC(C)CCCCC[C@@H](O)CC(=O)N[C@@H](CCC(=O)O)C(=O)N[C@@H](CC(C)C)C(=O)N[C@@H](CC(C)C)C(=O)N[C@@H](C(=O)N[C@@H](CC(=O)O)C(=O)N[C@@H](CC(C)C)C(=O)N[C@@H](CC(C)C)C(=O)O)C(C)C` (some centres undefined) (X2-ELL[dV]DLL-OH)?
A: MIC (Staphylococcus aureus [6]): 16 µg/mL (≈ 15.2 µM); MIC (Bacillus subtilis [2]): 32 µg/mL (≈ 30.3 µM); MIC (Pseudomonas aeruginosa): 16 µg/mL (≈ 15.2 µM); MIC (Salmonella typhi): 32 µg/mL (≈ 30.3 µM)

Q: What does the source list for `O=C1NC(=O)C(c2ccc(O)c([N+](=O)[O-])c2)=C1c1ccc(O)c([N+](=O)[O-])c1`?
A: MIC (Bacillus subtilis [4]): 25 to 100 µg/mL (≈ 67.3 to 269 µM); MIC (Micrococcus luteus): 25 to 100 µg/mL (≈ 67.3 to 269 µM); MIC (Escherichia coli [5]): 25 to 100 µg/mL (≈ 67.3 to 269 µM); MIC (Proteus vulgaris): 25 to 100 µg/mL (≈ 67.3 to 269 µM)

Q: `CC(C)=CCc1cc(C(=O)Nc2c(O)c3ccc(O[C@@H]4OC(C)(C)[C@H](O)[C@@H](O)[C@H]4O)c(C)c3oc2=O)ccc1O` was tested. Which MIC (Staphylococcus aureus [1]) did it give?
A: > 64 µg/mL

Q: `CO[C@@H]1[C@@H](OC(N)=O)[C@@H](O)[C@H](Oc2ccc3c(O)c(NC(=O)c4cc(O)c(O)c(CC=C(C)C)c4)c(=O)oc3c2C)OC1(C)C` was tested. Which MIC (Staphylococcus aureus [1]) did it give?
A: 8 to 16 µg/mL (≈ 12.7 to 25.5 µM)

Q: How did the MIC (Bacillus subtilis [4]) turn out when `O=C1N/C(=N\O)C(c2ccccc2)=C1c1ccc(O)c([N+](=O)[O-])c1` was run?
A: 3 to 25 µg/mL (≈ 9.22 to 76.9 µM)

Q: What about the MIC (Micrococcus luteus) of the same compound?
A: 3 to 25 µg/mL (≈ 9.22 to 76.9 µM)

Q: And the MIC (Escherichia coli [5])?
A: 3 to 25 µg/mL (≈ 9.22 to 76.9 µM)

Q: What about the MIC (Proteus vulgaris) of the same compound?
A: 3 to 25 µg/mL (≈ 9.22 to 76.9 µM)

Q: With `CC[C@H]1[C@@H]2C=C[C@@H]3[C@H]4/C=C/CC(=O)NCCC[C@@H]5NC(=O)C(=C5O)C(=O)/C=C/[C@@H]4C[C@@H]3[C@H]2C[C@H]1C` as the compound, how does the MIC (Staphylococcus aureus [1]) read?
A: 1 to 4 µg/mL (≈ 2.09 to 8.36 µM)

Q: Which MIC (Staphylococcus aureus [7]) does the source give for `C=C1CC[C@H](Br)C(C)(C)[C@@H]1C[C@@]12OC(C)(C)[C@H](Cl)C[C@]1(Cl)C(=O)c1c(O)cc(O)cc1C2=O` here?
A: ≤ 0.5 µg/mL

Q: And the MIC (Bacillus subtilis [8])?
A: ≤ 0.5 µg/mL

Q: What about the MIC (Bacillus thuringiensis) of the same compound?
A: ≤ 0.5 µg/mL

Q: Which MIC (Staphylococcus aureus [1]) does the source give for `CC(C)=CCc1cc(C(=O)Nc2c(O)c3ccc(O[C@@H]4OC(C)(C)[C@H](O)[C@@H](OC(N)=O)[C@H]4O)c(C)c3oc2=O)ccc1O` here?
A: 8 to 16 µg/mL (≈ 13.4 to 26.7 µM)

Q: With `C[C@@H](O)CCC/C=C/C=C/[C@H](O)C[C@@H](O)C/C=C\C=C\C(=O)O` as the compound, how does the MIC (Bacillus subtilis [2]) read?
A: ≥ 16 µg/mL

Q: And the MIC (Escherichia coli [3])?
A: ≥ 16 µg/mL

Q: How did the MIC (Staphylococcus aureus [6]) turn out when `C[C@@H]1CCC/C=C/C=C/[C@H](O)C[C@@H](O)[C@H](O)/C=C\C=C\[C@H](O)C/C=C/C=C\C(=O)O1` was run?
A: 0.1 µg/mL (≈ 0.239 µM)

Q: What about the MIC (Bacillus subtilis [2]) of the same compound?
A: 0.1 µg/mL (≈ 0.239 µM)

Q: And the MIC (Escherichia coli [3])?
A: 0.1 µg/mL (≈ 0.239 µM)

Q: Which results are given for `O=C1NC(=O)C(c2ccc(O)c([N+](=O)[O-])c2)=C1c1ccccc1`?
A: MIC (Bacillus subtilis [4]): 25 to 100 µg/mL (≈ 80.6 to 322 µM); MIC (Micrococcus luteus): 25 to 100 µg/mL (≈ 80.6 to 322 µM); MIC (Escherichia coli [5]): 25 to 100 µg/mL (≈ 80.6 to 322 µM); MIC (Proteus vulgaris): 25 to 100 µg/mL (≈ 80.6 to 322 µM)

Q: How did the MIC (Staphylococcus aureus [9]) turn out when `C[C@@H]1O[C@](C)(C(=O)O)O[C@H]1/C=C/C=C/C=C/C(=O)O[C@H]1CC[C@H](c2ccc3c(c2O)C(=O)c2ccc4c(c2C3=O)C(=O)[C@H](O)[C@](C)(O)C4)O[C@@H]1C` was run?
A: 2 to 6 µg/mL (≈ 2.85 to 8.54 µM)

Q: Which results are given for `C[C@@H]1CCC[C@@H](O)/C=C/[C@@H]2O[C@@H]2C[C@@H](O)C/C=C\C=C\[C@@H](O)C/C=C/C=C\C(=O)O1`?
A: MIC (Bacillus subtilis [2]): 16 µg/mL (≈ 38.2 µM); MIC (Escherichia coli [3]): 16 µg/mL (≈ 38.2 µM)

Q: Which results are given for `CCC(C)CCCCCCC[C@@H](O)CC(=O)N[C@@H](CCC(=O)O)C(=O)N[C@@H](CC(C)C)C(=O)O` (some centres undefined)?
A: MIC (Staphylococcus aureus [6]): 0.01 µg/mL (≈ 0.0205 µM); MIC (Bacillus subtilis [2]): 0.01 µg/mL (≈ 0.0205 µM); MIC (Pseudomonas aeruginosa): 0.03 µg/mL (≈ 0.0616 µM); MIC (Salmonella typhi): 0.03 µg/mL (≈ 0.0616 µM)

Q: How did the MIC (Staphylococcus aureus [6]) turn out when `C[C@@H]1CCC/C=C/C=C/[C@H](O)C[C@@H](O)[C@H](O)/C=C\C=C\[C@@H](O)C/C=C/C=C\C(=O)O1` was run?
A: 0.1 µg/mL (≈ 0.239 µM)

Q: And the MIC (Bacillus subtilis [2])?
A: 100 µg/mL (≈ 239 µM)

Q: What about the MIC (Escherichia coli [3]) of the same compound?
A: 0.3 µg/mL (≈ 0.717 µM)

Q: For `CO[C@@H]1[C@@H](OC(N)=O)[C@@H](O)[C@H](Oc2ccc3c(O)c(NC(=O)c4ccc(O)c(CC=C(C)C)c4)c(=O)oc3c2C)OC1(C)C` [NOVOBIOCIN], which MIC (Staphylococcus aureus [1]) is on record?
A: 0.25 µg/mL (≈ 0.408 µM)

Q: `CCC(C)CC(C)CCCC[C@@H](O)CC(=O)N[C@@H](CCC(=O)O)C(=O)N[C@@H](CC(C)C)C(=O)N[C@@H](CC(C)C)C(=O)N[C@@H](CC(C)C)C(=O)O` (some centres undefined) (X1-ELLL-OH) was tested. Which MIC (Staphylococcus aureus [6]) did it give?
A: 0.03 µg/mL (≈ 0.0421 µM)

Q: What about the MIC (Bacillus subtilis [2]) of the same compound?
A: 0.03 µg/mL (≈ 0.0421 µM)

Q: And the MIC (Pseudomonas aeruginosa)?
A: 0.01 µg/mL (≈ 0.014 µM)

Q: And the MIC (Salmonella typhi)?
A: 0.01 µg/mL (≈ 0.014 µM)

Q: For `COC(=O)CCC(=O)O[C@@H]1/C=C/C=C\C[C@H](O)C[C@@H](O)/C=C/C=C/CCC[C@@H](C)OC(=O)/C=C\C=C\C1`, which MIC (Bacillus subtilis [2]) is on record?
A: ≥ 16 µg/mL

Q: What about the MIC (Escherichia coli [3]) of the same compound?
A: ≥ 16 µg/mL

Q: How did the MIC (Staphylococcus aureus [9]) turn out when `C[C@@H]1O[C@](C)(C(=O)O)O[C@H]1/C=C/C=C/C=C/C(=O)O[C@H]1CC[C@H](c2ccc3c(c2O)C(=O)c2cc(O)c4c(c2C3=O)C(=O)[C@H](O)[C@](C)(O)C4)O[C@@H]1C` was run?
A: 2 to 6 µg/mL (≈ 2.78 to 8.35 µM)
